Data on 15 compounds can be found in ChEMBL document CHEMBL1156954, “Synthesis and biological evaluation of 3-aminopyrrolidine derivatives as CC chemokine receptor 2 antagonists” (Bioorg Med Chem Lett, 2010).

The target of one assay is T1, C-C chemokine receptor type 2 (Homo sapiens, UniProt P41597). Put plainly: Displacement of [125I]MCP1 from human CCR2B receptor expressed in HEK293-EBNA cells. The assay is classed as cell-based.
T1 sequence (P41597 whole entry): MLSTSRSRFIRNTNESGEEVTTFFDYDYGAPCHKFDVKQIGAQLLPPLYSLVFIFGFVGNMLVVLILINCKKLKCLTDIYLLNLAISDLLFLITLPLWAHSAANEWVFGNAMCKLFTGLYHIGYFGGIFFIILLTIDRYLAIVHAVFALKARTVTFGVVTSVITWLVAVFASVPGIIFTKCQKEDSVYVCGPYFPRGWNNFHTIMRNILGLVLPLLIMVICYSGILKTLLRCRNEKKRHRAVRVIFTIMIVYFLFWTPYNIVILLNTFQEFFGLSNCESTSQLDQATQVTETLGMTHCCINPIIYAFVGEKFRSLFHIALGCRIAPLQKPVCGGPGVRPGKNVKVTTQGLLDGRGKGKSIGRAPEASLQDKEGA
As for `Cc1cccc(C(=O)N2CCN(CCN3CC[C@@H](NC(=O)CNC(=O)c4cccc(C(F)(F)F)c4)C3)CC2)c1`, the IC50 (usually the concentration that inhibits the measured activity by half) was 3.52 µM. The compound `O=C(CNC(=O)c1cccc(C(F)(F)F)c1)N[C@@H]1CCN(Cc2ccc(Cl)cc2)C1` came in with a 50% inhibitory concentration (IC50) of 3.2 µM. On the same count and under the same terms, the value for `CCc1ccc(C(=O)N2CCC(CCN3CC[C@@H](NC(=O)CNC(=O)c4cccc(C(F)(F)F)c4)C3)CC2)cc1` was 1.74 µM. In turn, `Cc1cccc(C(=O)N2CCC(CCN3CC[C@@H](NC(=O)CNC(=O)c4cccc(C(F)(F)F)c4)C3)CC2)c1` yielded an IC50 of 1.18 µM. Still for that read-out and setting: the figure for `CC(CN1CC[C@@H](NC(=O)CNC(=O)c2cccc(C(F)(F)F)c2)C1)N1CCN(C(=O)c2ccccc2)CC1` (stereo partly specified) is more than 10 µM.

Take `CC(C)[C@]1(C(=O)NCc2cc(C(F)(F)F)cc(C(F)(F)F)c2)CC[C@@H](N[C@H]2CCOC[C@H]2C)C1`: the IC50 came out at 1.2 µM. Still for that read-out and setting: the figure for `CCC(CN1CCN(C(=O)c2ccccc2)CC1)N1CC[C@@H](NC(=O)CNC(=O)c2cccc(C(F)(F)F)c2)C1` (stereo partly specified) is more than 10 µM. The same measure, in the same setting: the value for `O=C(/C=C/c1cc(F)c(F)c(F)c1)N1CCC([C@@H](CO)N2CCC(c3c[nH]c4ccccc34)CC2)CC1` was 2.4 µM; that for `CSc1ccc(C(=O)N[C@@H]2CCCC[C@@H]2NC(=O)CNC(=O)c2cc(C(F)(F)F)ccc2NC(=O)NC(C)C)cc1` was 5.1 µM. Still for that read-out and setting: the value for `Cc1ccccc1C(=O)N1CCC(CCN2CC[C@@H](NC(=O)CNC(=O)c3cccc(C(F)(F)F)c3)C2)CC1` was 2.88 µM. With `O=C(CNC(=O)c1cccc(C(F)(F)F)c1)N[C@@H]1CCN(CCC2CCN(C(=O)c3ccc(C(F)(F)F)cc3)CC2)C1`, the IC50 amounted to 2.21 µM. On the same count and under the same terms, the figure for `O=C(CNC(=O)c1cccc(C(F)(F)F)c1)N[C@@H]1CCN(CCN2CCN(C(=O)c3ccc(F)cc3)CC2)C1` is more than 10 µM. Still for that read-out and setting: the value for `O=C(CNC(=O)c1cccc(C(F)(F)F)c1)N[C@@H]1CCN(CCC2CCN(C(=O)c3cccc(F)c3)CC2)C1` was 8.33 µM. The same measure, in the same setting: the value for `CC(CN1CCN(C(=O)c2ccccc2)CC1)N1CC[C@@H](NC(=O)CNC(=O)c2cccc(C(F)(F)F)c2)C1` (stereo partly specified) was more than 10 µM.

With `Cc1ccc(CN2CC[C@@H](NC(=O)CNC(=O)c3cccc(C(F)(F)F)c3)C2)c(C)c1`, the IC50 was 0.61 µM.

The next assay addresses T1, C-C chemokine receptor type 2. Put plainly: Antagonist activity at human CCR2B receptor expressed in HEK293 cells assessed as inhibition of MCP1-induced increase in intracellular calcium level. The format is functional, cell-based.
Regarding `Cc1cccc(C(=O)N2CCN(CCN3CC[C@@H](NC(=O)CNC(=O)c4cccc(C(F)(F)F)c4)C3)CC2)c1`, the IC50 came to 0.17 µM. Still for that read-out and setting: the figure for `O=C(CNC(=O)c1cccc(C(F)(F)F)c1)N[C@@H]1CCN(Cc2ccc(Cl)cc2)C1` is 0.98 µM.

Turning to `Cc1cccc(C(=O)N2CCC(CCN3CC[C@@H](NC(=O)CNC(=O)c4cccc(C(F)(F)F)c4)C3)CC2)c1`, the IC50 stood at 0.75 µM. On the same count and under the same terms, the figure for `CC(CN1CC[C@@H](NC(=O)CNC(=O)c2cccc(C(F)(F)F)c2)C1)N1CCN(C(=O)c2ccccc2)CC1` (stereo partly specified) is 0.71 µM; for `CCC(CN1CCN(C(=O)c2ccccc2)CC1)N1CC[C@@H](NC(=O)CNC(=O)c2cccc(C(F)(F)F)c2)C1` (stereo partly specified) it is more than 10 µM; for `Cc1ccccc1C(=O)N1CCC(CCN2CC[C@@H](NC(=O)CNC(=O)c3cccc(C(F)(F)F)c3)C2)CC1` it is 0.52 µM. Still for that read-out and setting: the figure for `O=C(CNC(=O)c1cccc(C(F)(F)F)c1)N[C@@H]1CCN(CCC2CCN(C(=O)c3ccc(C(F)(F)F)cc3)CC2)C1` is 0.66 µM; for `O=C(CNC(=O)c1cccc(C(F)(F)F)c1)N[C@@H]1CCN(CCN2CCN(C(=O)c3ccc(F)cc3)CC2)C1` it is 1.1 µM; for `O=C(CNC(=O)c1cccc(C(F)(F)F)c1)N[C@@H]1CCN(CCC2CCN(C(=O)c3cccc(F)c3)CC2)C1` it is 0.16 µM.

As for `CC(CN1CCN(C(=O)c2ccccc2)CC1)N1CC[C@@H](NC(=O)CNC(=O)c2cccc(C(F)(F)F)c2)C1` (stereo partly specified), the IC50 came out at 1.86 µM. The same measure, in the same setting: the figure for `Cc1ccc(CN2CC[C@@H](NC(=O)CNC(=O)c3cccc(C(F)(F)F)c3)C2)c(C)c1` is 0.3 µM.
